Data: US6759384B1, “Factor Xa inhibitors” (Aventis Pharmaceuticals Inc., priority 1994, dated 2004)
pEC50, pKi: −log10 of the molar value. Where a name gives a salt, the structure may show the parent alone. Read-outs that look alike come from different tables or passages of the source. Starred links: 1 amine or outer side, 2 acyl side, 3 side chain; linkers in the order of their positions; H or OH if unused. Non-standard residues stand in square brackets, D forms with d. Residues, ends and D or L forms follow the SMILES beside them. No end group written: not given here. *: point of attachment. X1 = CC(C)CN([C@@H](Cc1ccc(O)cc1)C(=O)[*:2])[*:1]; 2Nal = N[C@@H](Cc1ccc2ccccc2c1)C(=O)O; Chg = N[C@H](C(=O)O)C1CCCCC1; Tfa = O=C(C(F)(F)F)*

Key:
[1] = Ex vivo dilute prothrombin time assay after iv administration to rats; conditions: rat, in vivo, time at which approximately 50% of the initial anticoagulant activity remains in plasma, read-out: T1/2 Rat ex vivo
Protocol: (§1) The compounds of the invention were assessed for their ability to inhibit factor Xa activity. Effectiveness of various compounds was assessed by the in vitro prothrombin time (PT) assay using pooled human donor plasma. An ex vivo assay also was used in which plasma was collected at various times after intravenous (iv) administration of a compound to rats and to rabbits or intraduodenal administration to rats and analyzed using the PT assay to determine plasma half-life. The PT assay was initiated with a thromboplastin dilution selected to obtain an extended and highly reproducible coagulation endpoint, referred to as the “dilute PT assay” as described below. Effectiveness of various compounds also was determined using an in vivo rat arteriovenous shunt model of thrombosis.
(§2) Test compound was administered iv either through the tail vein (rat) or ear vein (rabbit) following an approved protocol. One ml blood samples were removed at timed intervals after administration of a test compound from a cannulated carotid artery (rat) or auricular artery (rabbit). After centrifugation to obtain PPP, the plasma was immediately stored on ice or frozen.
(§3) For dilute prothrombin time determination, the plasma was prewarmed and assayed as described above. Percent inhibition was calculated from a thromboplastin dilution curve, which was run with each series of samples, and used to determine the time at which approximately 50% of the initial anticoagulant activity remains in the plasma (T1/2).
Various compounds also were examined for anticoagulant activity using the ex vivo dilute prothrombin time assay following iv bolus administration of various doses in rats. […] The structures of all of the compounds listed in Table 5 were confirmed by MS and AA.

[2] = Ex vivo dilute prothrombin time assay after iv administration to rabbits; conditions: rabbit, in vivo, time at which approximately 50% of the initial anticoagulant activity remains in plasma, read-out: T1/2 Rabbit ex vivo
Protocol: as §1, §2, §3

[3] = target: T1, human thrombin (Homo sapiens, UniProt P00734); experiment: Thrombin chromogenic assay; format: biochemical; conditions: Table 2
T1 construct: purchased Enzyme Research Laboratories, Inc; South Bend Ind
Protocol: (§4) The ability of a compound of the invention to inhibit factor Xa, thrombin, plasmin, elastase and trypsin was assessed by determining the concentration of YIR peptide that inhibits enzyme activity by 50% (IC50). Purified enzymes were used in chromogenic assays. To determine the inhibition constant, the IC50 value was corrected for competition with substrate using the formula:
(§5) Ki=IC50×(1/{1+((substrate concentration)/substrate Km)})
TBS-P buffer was used for this assay. The IC50 was determined as described in Example XXXVII.a., except that the substrate was S-2366 (L-PyroGlu-L-Pro-L-Arg-p-nitroanilide; Kabi) and the enzyme was human thrombin (Enzyme Research Laboratories, Inc.; South Bend Ind.). The enzyme concentration was 1 nM and substrate concentration was 175 μM.

[4] = target: T2, human plasmin (Homo sapiens, UniProt P00747); experiment: Plasmin chromogenic assay; format: biochemical; conditions: Table 2
T2 construct: the enzyme was human plasmin (Kabi); purchased Kabi
Protocol: as §4, §5
TBS-P buffer was used for this assay. The IC50 was determined as described in Example XXXVII.a., except that the substrate was S-2251 ((D)-Val-L-Leu-L-Lys-p-nitroanilide; Kabi) and the enzyme was human plasmin (Kabi). The enzyme concentration was 5 nM and the substrate concentration was 300 uM.

[5] = target: factor Xa; conditions: background section; cited from earlier work
[6] = target: T3, human factor Xa (Homo sapiens, UniProt P00742); experiment: Factor Xa chromogenic assay; format: biochemical
T3 construct: purchased Enzyme Research Laboratories, Inc; South Bend Ind
Protocol: as §4, §5
(Chen and Prusoff, Biochem. Pharmacol. 22:3099-[…] (1973), which is incorporated herein by reference).
TBS-P buffer (50 mM Tris-Cl, pH 7.8, 200 mM NaCl, 0.05% (w/v) PEG-8000, 0.02% (w/v) NaN3) was used for this assay. The IC50 was determined by combining in appropriate wells of a Costar half-area microtiter plate 25 μl human factor Xa (Enzyme Research Laboratories, Inc.; South Bend Ind.) in TBS-P; 40 μl 10% (v/v) DMSO in TBS-P (uninhibited control) or various concentrations of a peptide to be tested diluted in 10% (v/v) DMSO in TBS-P; and substrate S-2765 (Nα-benzyloxycarbonyl-D-Arg-Gly-L-Arg-p-nitroanilide; Kabi Pharmacia, Inc.; Franklin Ohio) in TBS-P.
The assays were performed by pre-incubating the peptide inhibitor plus enzyme for 10 min, then the assay was initiated by adding substrate to obtain a final volume of 100 μl. The initial velocity of chromogenic substrate hydrolysis was measured by the change in absorbance at 405 nm using a Bio-tek Instruments kinetic plate reader (Ceres UV900HDi) at 25° C. during the linear portion of the time course (usually 1-5 min after addition of substrate). The concentration of inhibitor that caused a 50% decrease in the rate of substrate hydrolysis was predicted by linear regression after plotting the relative rates of hydrolysis (compared to the uninhibited control) versus the log of the peptide concentration. The enzyme concentration was 0.5 nM and substrate concentration was 140 μM.

[7] = target: T4, human neutrophil elastase (Homo sapiens, UniProt P08246); experiment: Elastase chromogenic assay; format: biochemical; conditions: Table 2
T4 construct: purchased Athens Research and Technology, Inc; Athens Ga
T4 sequence (P08246 30-247 limits assumed): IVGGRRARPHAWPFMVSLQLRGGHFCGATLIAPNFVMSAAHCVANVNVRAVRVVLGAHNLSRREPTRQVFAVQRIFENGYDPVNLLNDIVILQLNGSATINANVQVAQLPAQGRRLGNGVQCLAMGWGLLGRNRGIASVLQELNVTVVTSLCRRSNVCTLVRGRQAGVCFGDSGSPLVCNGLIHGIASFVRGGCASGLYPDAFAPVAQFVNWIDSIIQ
Protocol: as §4, §5
Tris-Cl, pH 7.4, 300 mM NaCl, 2% (v/v) N-methyl-pyrrolidone, 0.01% (w/v) NaN3 buffer was used for this assay. The IC50 was determined as described in Example XXXVII.a., except that the substrate was succinyl-Ala-Ala-Ala-p-nitroanilide (Calbiochem-Nova Biochem Corp.; San Diego Calif.) and the enzyme was human neutrophil elastase (Athens Research and Technology, Inc.; Athens Ga.). The enzyme concentration was 75 nM and the substrate concentration was 600 μM.

[8] = tested on: pooled human platelet poor plasma; experiment: In vitro dilute prothrombin time assay; format: biochemical; conditions: concentration giving 50% inhibition of coagulation, dilute PT
Protocol: The compounds of the invention were assessed for their ability to inhibit factor Xa activity. Effectiveness of various compounds was assessed by the in vitro prothrombin time (PT) assay using pooled human donor plasma. An ex vivo assay also was used in which plasma was collected at various times after intravenous (iv) administration of a compound to rats and to rabbits or intraduodenal administration to rats and analyzed using the PT assay to determine plasma half-life. The PT assay was initiated with a thromboplastin dilution selected to obtain an extended and highly reproducible coagulation endpoint, referred to as the “dilute PT assay” as described below. Effectiveness of various compounds also was determined using an in vivo rat arteriovenous shunt model of thrombosis. […]
Alternatively, the dilute prothrombin time assay was conducted using the “research” mode on an Instrumentation Laboratories (IL) ACL3000-plus automated coagulation instrument (IL; Milan, Italy). […] During the assay, a 50 μl sample (plasma separated by centrifugation) was mixed with 100 μl thromboplastin reagent and nephelometric readings were taken over 169 sec. Coagulation time was determined from the maximal rate of change of light scatter calculated by the instrument. Inhibition is expressed as percent activity as determined by comparison with the calibration curve.

[9] = target: T5, bovine pancreatic trypsin (Bos taurus, UniProt P00760); experiment: Trypsin chromogenic assay; format: biochemical; conditions: Table 2; * no significant inhibition at the highest concentration tested
T5 construct: purchased Sigma Type XIII, TPCK treated; host or cells: bovine pancreas
T5 sequence (P00760 24-246): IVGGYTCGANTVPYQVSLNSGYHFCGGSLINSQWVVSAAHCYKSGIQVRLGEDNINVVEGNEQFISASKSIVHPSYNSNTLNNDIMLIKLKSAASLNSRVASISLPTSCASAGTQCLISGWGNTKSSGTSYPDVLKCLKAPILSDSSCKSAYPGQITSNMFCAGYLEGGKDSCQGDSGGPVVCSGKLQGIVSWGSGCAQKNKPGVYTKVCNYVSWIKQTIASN
Protocol: as §4, §5
TBS-P buffer containing 10 mM CaCl2 was used for this assay. The IC50 determination was determined as described in Example XXXVII.a., except that the substrate was BAPNA (Benzoyl-L-Arg-p-nitroanilide; Sigma Chemical Co.; St. Louis Mo.) and the enzyme was bovine pancreatic trypsin (Type XIII, TPCK treated; Sigma). The enzyme concentration was 50 nM and the substrate concentration was 300 μM.

T3 sequence (P00742 235-488 limits assumed): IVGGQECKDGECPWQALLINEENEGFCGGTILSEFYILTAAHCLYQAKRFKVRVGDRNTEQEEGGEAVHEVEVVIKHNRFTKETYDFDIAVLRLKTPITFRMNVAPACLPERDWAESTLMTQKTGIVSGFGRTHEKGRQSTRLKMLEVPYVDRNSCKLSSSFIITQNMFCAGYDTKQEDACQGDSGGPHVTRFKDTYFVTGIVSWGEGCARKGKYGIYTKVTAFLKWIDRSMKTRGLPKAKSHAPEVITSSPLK
T3 sequence (P00742 41-179 partner limits assumed): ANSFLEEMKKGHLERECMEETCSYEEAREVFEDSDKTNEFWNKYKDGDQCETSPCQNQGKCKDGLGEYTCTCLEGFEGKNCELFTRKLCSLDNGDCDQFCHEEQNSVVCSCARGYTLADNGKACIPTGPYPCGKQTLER
T2 sequence (P00747 581-810 limits assumed): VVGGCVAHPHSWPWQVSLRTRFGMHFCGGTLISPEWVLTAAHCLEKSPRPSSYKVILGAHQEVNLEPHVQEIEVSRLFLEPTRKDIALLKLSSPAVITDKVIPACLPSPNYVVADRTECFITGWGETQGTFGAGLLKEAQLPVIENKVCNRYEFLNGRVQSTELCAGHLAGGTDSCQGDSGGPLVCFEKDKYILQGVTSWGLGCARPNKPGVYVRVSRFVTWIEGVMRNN
T2 sequence (P00747 97-580 partner limits assumed): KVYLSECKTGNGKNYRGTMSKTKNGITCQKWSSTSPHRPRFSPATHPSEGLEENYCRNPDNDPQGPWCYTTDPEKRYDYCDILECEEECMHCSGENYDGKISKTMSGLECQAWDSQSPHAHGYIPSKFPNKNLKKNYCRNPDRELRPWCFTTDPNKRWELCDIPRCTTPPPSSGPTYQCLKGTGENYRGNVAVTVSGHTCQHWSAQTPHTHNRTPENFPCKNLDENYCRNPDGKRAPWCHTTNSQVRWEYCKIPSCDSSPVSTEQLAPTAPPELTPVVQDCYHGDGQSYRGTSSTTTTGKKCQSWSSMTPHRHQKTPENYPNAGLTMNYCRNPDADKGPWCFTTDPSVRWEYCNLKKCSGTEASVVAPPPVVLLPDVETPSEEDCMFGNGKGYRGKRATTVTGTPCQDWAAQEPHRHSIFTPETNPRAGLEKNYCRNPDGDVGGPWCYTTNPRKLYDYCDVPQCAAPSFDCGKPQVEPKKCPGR

| Molecule | half-life [1] [min] | half-life [2] [min] | pKi [5] | other results |
| --- | --- | --- | --- | --- |
| N-alpha-tosyl-Gly-p-amidinophenylalanine methyl ester [TENSTOP, reference compound] |  |  | ~6.10 | pKi [3]: 5.70; pKi [4]: < 3.70; pKi ([6]; Table 2, read-out: Ki Xa): 5.70; pKi [7]: < 3.70 |
| CC(=O)N[C@@H](Cc1ccc2ccccc2c1)C(=O)N[C@H](C(=O)N[C@@H](CCCNC(=N)N)C(=O)N[C@@H](CC(C)C)C(=O)N1CCC[C@H]1C(N)=O)C1CCCCC1 [Ac—Nal(2)—Chg—R—L—P—NH2, Ac-Nal(2)-Chg-Arg-Leu-Pro-NH2] (Ac-[2Nal][Chg]RLP-NH2) | 6 | 5 |  | pEC50 [8]: 6.85 |
| CC[C@H](C)[C@H](NC(=O)[C@H](Cc1ccc(O)cc1)N(CC(C)C)C(C)=O)C(=O)N[C@@H](CCCNC(=N)N)C(=O)N[C@@H](CC(C)C)C(=O)N1CCC[C@H]1C(N)=O [Ac-(iBu)Y-I-R-L-P, Ac-(iBu)Tyr-Ile-Arg-Leu-Pro-NH2] (Ac-[X1]IRLP-NH2) |  |  |  | pKi [4]: < 3.70; pKi ([6]; Example XXXVI, read-out: Ki (inhibition of factor Xa activity)): 7.40; pKi [7]: < 4.00 |
| CC(=O)N[C@@H](Cc1ccc(O)cc1)C(=O)N[C@H](C(=O)N[C@@H](CCCNC(=N)N)C(=O)N[C@@H](CC(C)C)C(=O)N1CCC[C@H]1C(N)=O)C1CCCCC1 [Ac—Y—Chg—R—L—P—NH2, Ac-Tyr-Chg-Arg-Leu-Pro-NH2] (Ac-Y[Chg]RLP-NH2) | 5 | 5 |  | pEC50 [8]: 6.65 |
| TAP: tick anticoagulant peptide, isolated from the tick Ornithodoros moubata, 60 amino acids (YNRLCIKPRDWIDECDSNEGGERAYFRNGKGGCDSFWICPEDHTGADYYSSYRDCFNACI; ends and bridges not checked; cysteine pairing not given here; UniProt P17726 1-60, looked up) |  |  | ~9.30 |  |
| N=C(N)c1ccc(C=C2CCCCC(=Cc3ccc(C(=N)N)cc3)C2=O)cc1 [2,7-bis-(4-amidinobenzylidene)-cycloheptanone, reference compound] |  |  | ~7.70 |  |
| YIRLAAET [Ac-Y-I-R-L-A-A-E-T, Ac-Y-I-R-L-A-A-E-T (SEQ ID NO:9)] |  |  |  | pKi [9]: < 3.70; pKi ([6]; Table 2, read-out: Ki Xa): 5.82 |

Now from value to molecule, other results behind:

| half-life [1] [min] | half-life [2] [min] | Molecule | pKi [5] | other results |
| --- | --- | --- | --- | --- |
| 5 | 5 | CC(=O)N[C@@H](Cc1ccc(O)cc1)C(=O)N[C@H](C(=O)N[C@@H](CCCNC(=N)N)C(N)=O)C1CCCCC1 [Ac—Y—Chg—R—NH2] (Ac-Tyr-[Chg]-Arg-NH2) |  |  |
| 15 | 10 | CC(C)C[C@H](NC(=O)[C@H](CCCNC(=N)N)NC(=O)[C@@H](NC(=O)[C@H](Cc1ccc(O)cc1)N(CC(C)C)C(=O)C(F)(F)F)C1CCCCC1)C(=O)N1CCC[C@H]1C(N)=O [Tfa—(iBu)Y—Chg—R—L—P—NH2, Tfa-(iBu)Tyr-Chg-Arg-Leu-Pro-NH2] (Tfa-[X1][Chg]RLP-NH2) |  |  |
